Laboratory results taken from patent publication US10479780B2, “Aminopyrazole derivatives” (Chugai Seiyaku Kabushiki Kaisha, priority 2015, dated 2019).

Legend:
Type in all cases: biochemical
[1] = molecular target: T1, human Yes1 enzyme (Homo sapiens, UniProt P07947); assay: Yes1 enzyme inhibitory activity (time-resolved fluorometry, biotinylated peptide phosphorylation); details: biotinylated peptide phosphorylation, read-out: YES_IC50
T1 construct: made in house
How it was run: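 Inhibition was expressed against a compound-free control to give IC50, using TR-FRET read-out (Eu-cryptate anti-pTyr antibody, streptavidin-XL665).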

[2] = molecular target: T2, human Src enzyme (Homo sapiens, UniProt P12931); assay: Src enzyme inhibitory activity (time-resolved fluorometry, biotinylated peptide phosphorylation); details: biotinylated peptide phosphorylation, read-out: SRC_IC50
T2 construct: purchased Carna Biosciences, Inc. 08-173
How it was run: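 Compounds were tested for blocking tyrosine phosphorylation of a biotinylated peptide substrate by recombinant human Src. Phosphorylated product was quantified by time-resolved fluorometry using europium cryptate and XL665 conjugates, and IC50 was calculated against the compound-free control.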

[3] = molecular target: T3, human Lck enzyme (Homo sapiens, UniProt P06239); assay: Lck enzyme inhibitory activity (time-resolved fluorometry, biotinylated peptide phosphorylation); details: biotinylated peptide phosphorylation, read-out: LCK_IC50
T3 construct: purchased Carna Biosciences, Inc. 08-170
How it was run: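 Readout pairs a europium cryptate-labelled anti-phosphotyrosine antibody with XL665-streptavidin, measured by time-resolved fluorescence. IC50 derived from percent inhibition against untreated controls.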

T3 sequence (P06239 whole entry): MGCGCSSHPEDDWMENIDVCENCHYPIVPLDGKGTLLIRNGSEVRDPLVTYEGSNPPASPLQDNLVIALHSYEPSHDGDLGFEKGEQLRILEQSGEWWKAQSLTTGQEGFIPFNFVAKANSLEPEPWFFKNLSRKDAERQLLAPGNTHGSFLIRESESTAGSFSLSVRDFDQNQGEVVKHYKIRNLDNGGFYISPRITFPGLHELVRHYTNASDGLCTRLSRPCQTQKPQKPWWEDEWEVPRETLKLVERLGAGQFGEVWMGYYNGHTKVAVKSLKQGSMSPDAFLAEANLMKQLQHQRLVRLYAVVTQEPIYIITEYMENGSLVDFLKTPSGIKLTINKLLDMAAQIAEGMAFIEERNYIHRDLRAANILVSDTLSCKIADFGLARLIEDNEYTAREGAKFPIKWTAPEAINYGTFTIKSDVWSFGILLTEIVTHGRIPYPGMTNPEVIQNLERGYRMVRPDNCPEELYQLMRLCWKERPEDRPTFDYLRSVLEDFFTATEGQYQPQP
T1 sequence (P07947 whole entry): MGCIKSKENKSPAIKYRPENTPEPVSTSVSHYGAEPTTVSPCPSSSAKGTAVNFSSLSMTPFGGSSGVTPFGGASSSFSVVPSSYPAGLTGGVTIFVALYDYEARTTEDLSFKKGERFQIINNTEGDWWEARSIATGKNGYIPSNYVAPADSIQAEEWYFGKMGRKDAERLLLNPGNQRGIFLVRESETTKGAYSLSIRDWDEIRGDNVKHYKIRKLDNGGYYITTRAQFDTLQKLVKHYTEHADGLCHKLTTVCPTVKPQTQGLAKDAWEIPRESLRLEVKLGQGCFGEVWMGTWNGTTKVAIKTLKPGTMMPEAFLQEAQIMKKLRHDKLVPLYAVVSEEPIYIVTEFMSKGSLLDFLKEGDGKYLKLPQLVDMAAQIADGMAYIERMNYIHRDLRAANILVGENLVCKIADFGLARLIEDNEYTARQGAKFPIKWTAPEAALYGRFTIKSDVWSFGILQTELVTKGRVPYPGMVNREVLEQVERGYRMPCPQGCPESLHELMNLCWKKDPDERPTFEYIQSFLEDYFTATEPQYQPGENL
T2 sequence (P12931 whole entry): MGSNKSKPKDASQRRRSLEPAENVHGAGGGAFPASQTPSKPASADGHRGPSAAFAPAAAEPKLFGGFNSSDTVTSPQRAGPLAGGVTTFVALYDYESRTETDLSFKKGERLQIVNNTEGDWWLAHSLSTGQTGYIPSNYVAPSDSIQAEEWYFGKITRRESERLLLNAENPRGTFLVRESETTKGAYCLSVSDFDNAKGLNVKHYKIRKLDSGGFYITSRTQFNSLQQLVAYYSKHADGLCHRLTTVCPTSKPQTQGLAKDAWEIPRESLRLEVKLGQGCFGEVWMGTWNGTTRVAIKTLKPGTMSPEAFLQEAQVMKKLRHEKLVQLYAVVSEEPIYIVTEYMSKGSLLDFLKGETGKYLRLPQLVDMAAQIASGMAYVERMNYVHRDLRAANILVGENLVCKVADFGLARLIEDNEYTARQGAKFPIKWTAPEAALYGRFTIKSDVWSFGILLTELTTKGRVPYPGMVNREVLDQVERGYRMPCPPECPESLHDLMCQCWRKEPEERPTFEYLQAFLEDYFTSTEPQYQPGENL

SMILES	IC50 [1]	IC50 [2]	IC50 [3]
Cc1cc(Oc2ccccc2F)ncc1-n1ncc(C(=O)c2cc3cc(F)c(NS(C)(=O)=O)cc3[nH]2)c1N [Example 4-7-001, N-{2-{5-amino-1-[6-(2-fluorophenoxy)-4-methylpyridin-3-yl]pyrazole-4-carbonyl}-5-fluoro-1H-indol-6-yl}methanesulfonamide]	2.2 nM	41 nM	10 nM
Cc1cc(Oc2ccccc2F)ccc1-n1ncc(C(=O)c2cc3cc(F)c(NS(=O)(=O)CC4COCCO4)cc3[nH]2)c1N (stereo not drawn) [Example 4-7-002, N-[2-[5-amino-1-[4-(2-fluorophenoxy)-2-methylphenyl]pyrazole-4-carbonyl]-5-fluoro-1H-indol-6-yl]-1-(1,4-dioxan-2-yl)methanesulfonamide]	0.43 nM	9.5 nM	9.1 nM
Cc1cc(Oc2ccccc2F)cc(F)c1-n1ncc(C(=O)c2cc3cc(F)c(NS(C)(=O)=O)cc3[nH]2)c1N [Example 4-7-003, N-[2-[5-amino-1-[2-fluoro-4-(2-fluorophenoxy)-6-methylphenyl]pyrazole-4-carbonyl]-5-fluoro-1H-indol-6-yl]methanesulfonamide]	1 nM	19 nM	7.1 nM
Cc1cc(Oc2cccc(F)c2F)cc(F)c1-n1ncc(C(=O)c2cc3cc(F)c(NS(=O)(=O)C4CC4)cc3[nH]2)c1N [Example 4-7-006, N-[2-[5-amino-1-[4-(2,3-difluorophenoxy)-2-fluoro-6-methylphenyl]pyrazole-4-carbonyl]-5-fluoro-1H-indol-6-yl]cyclopropanesulfonamide]	7 nM	380 nM	160 nM
Cc1cc(Oc2cc(F)ccc2F)cc(F)c1-n1ncc(C(=O)c2cc3cc(F)c(NS(=O)(=O)C4CC4)cc3[nH]2)c1N [Example 4-7-008, N-[2-[5-amino-1-[4-(2,5-difluorophenoxy)-2-fluoro-6-methylphenyl]pyrazole-4-carbonyl]-5-fluoro-1H-indol-6-yl]cyclopropanesulfonamide]	5.9 nM	490 nM	140 nM
Cc1cc(Oc2ccccc2Cl)cc(F)c1-n1ncc(C(=O)c2cc3cc(F)c(NS(C)(=O)=O)cc3[nH]2)c1N [Example 4-7-009, N-[2-[5-amino-1-[4-(2-chlorophenoxy)-2-fluoro-6-methylphenyl]pyrazole-4-carbonyl]-5-fluoro-1H-indol-6-yl]methanesulfonamide]	3.7 nM	150 nM	34 nM
Cc1cc(Oc2ccccc2Cl)cc(F)c1-n1ncc(C(=O)c2cc3cc(F)c(NS(=O)(=O)C4CC4)cc3[nH]2)c1N [Example 4-7-010, N-[2-[5-amino-1-[4-(2-chlorophenoxy)-2-fluoro-6-methylphenyl]pyrazole-4-carbonyl]-5-fluoro-1H-indol-6-yl]cyclopropanesulfonamide]	9 nM	280 nM	100 nM
Cc1cc(Oc2cccc(Cl)c2)cc(F)c1-n1ncc(C(=O)c2cc3cc(F)c(NS(C)(=O)=O)cc3[nH]2)c1N [Example 4-7-011, N-[2-[5-amino-1-[4-(3-chlorophenoxy)-2-fluoro-6-methylphenyl]pyrazole-4-carbonyl]-5-fluoro-1H-indol-6-yl]methanesulfonamide]	14 nM	200 nM	97 nM
Cc1cc(Oc2cccc(Cl)c2)cc(F)c1-n1ncc(C(=O)c2cc3cc(F)c(NS(=O)(=O)C4CC4)cc3[nH]2)c1N [Example 4-7-012, N-[2-[5-amino-1-[4-(3-chlorophenoxy)-2-fluoro-6-methylphenyl]pyrazole-4-carbonyl]-5-fluoro-1H-indol-6-yl]cyclopropanesulfonamide]	14 nM	330 nM	160 nM
Cc1cc(Oc2ccccc2)cc(F)c1-n1ncc(C(=O)c2cc3cc(F)c(NS(=O)(=O)C4CC4)cc3[nH]2)c1N [Example 4-7-014, N-[2-[5-amino-1-(2-fluoro-6-methyl-4-phenoxyphenyl)pyrazole-4-carbonyl]-5-fluoro-1H-indol-6-yl]cyclopropanesulfonamide]	4.9 nM	130 nM	73 nM
Cc1cc(Oc2cccc(Cl)c2)ncc1-n1ncc(C(=O)c2cc3cc(F)c(NS(=O)(=O)C4CC4)cc3[nH]2)c1N [Example 4-7-016, N-[2-[5-amino-1-[6-(3-chlorophenoxy)-4-methylpyridin-3-yl]pyrazole-4-carbonyl]-5-fluoro-1H-indol-6-yl]cyclopropanesulfonamide]	4.6 nM	210 nM	110 nM

Continued by falling IC50 [1], values first:

IC50 [1]	IC50 [2]	IC50 [3]	SMILES
4.8 nM	220 nM	40 nM	Cc1cc(Oc2ccccc2F)cc(F)c1-n1ncc(C(=O)c2cc3cc(F)c(NS(=O)(=O)C4CC4)cc3[nH]2)c1N [Example 4-7-004, N-[2-[5-amino-1-[2-fluoro-4-(2-fluorophenoxy)-6-methylphenyl]pyrazole-4-carbonyl]-5-fluoro-1H-indol-6-yl]cyclopropanesulfonamide]
3 nM	58 nM	26 nM	Cc1cc(Oc2ccccc2)cc(F)c1-n1ncc(C(=O)c2cc3cc(F)c(NS(C)(=O)=O)cc3[nH]2)c1N [Example 4-7-013, N-[2-[5-amino-1-(2-fluoro-6-methyl-4-phenoxyphenyl)pyrazole-4-carbonyl]-5-fluoro-1H-indol-6-yl]methanesulfonamide]
2.8 nM	160 nM	45 nM	Cc1cc(Oc2cccc(F)c2F)cc(F)c1-n1ncc(C(=O)c2cc3cc(F)c(NS(C)(=O)=O)cc3[nH]2)c1N [Example 4-7-005, N-[2-[5-amino-1-[4-(2,3-difluorophenoxy)-2-fluoro-6-methylphenyl]pyrazole-4-carbonyl]-5-fluoro-1H-indol-6-yl]methanesulfonamide]
2 nM	190 nM	41 nM	Cc1cc(Oc2cc(F)ccc2F)cc(F)c1-n1ncc(C(=O)c2cc3cc(F)c(NS(C)(=O)=O)cc3[nH]2)c1N [Example 4-7-007, N-[2-[5-amino-1-[4-(2,5-difluorophenoxy)-2-fluoro-6-methylphenyl]pyrazole-4-carbonyl]-5-fluoro-1H-indol-6-yl]methanesulfonamide]
1.1 nM	31 nM	14 nM	Cc1cc(Oc2ccccc2F)ccc1-n1ncc(C(=O)c2cc3cc(F)c(NS(=O)(=O)C4(CC(O)CO)CC4)cc3[nH]2)c1N (stereo not drawn) [Example 4-8-001, N-{2-{5-amino-1-[4-(2-fluorophenoxy)-2-methylphenyl]pyrazole-4-carbonyl}-5-fluoro-1H-indol-6-yl}-1-(2,3-dihydroxypropyl)cyclopropane-1-sulfonamide]
0.92 nM	110 nM	17 nM	Cc1cc(Oc2ccccc2Cl)ncc1-n1ncc(C(=O)c2cc3cc(F)c(NS(=O)(=O)C4CC4)cc3[nH]2)c1N [Example 4-7-015, N-[2-[5-amino-1-[6-(2-chlorophenoxy)-4-methylpyridin-3-yl]pyrazole-4-carbonyl]-5-fluoro-1H-indol-6-yl]cyclopropanesulfonamide]
0.46 nM	13 nM	2.5 nM	Cc1cc(Oc2ccccc2F)ncc1-n1ncc(C(=O)c2cc3cc(F)c(N4CCCS4(=O)=O)cc3[nH]2)c1N [Example 4-9-001, {5-amino-1-[6-(2-fluorophenoxy)-4-methylpyridin-3-yl]pyrazol-4-yl}-[6-(1,1-dioxo-1,2-thiazolidin-2-yl)-5-fluoro-1H-indol-2-yl]methanone]
